Like-named read-outs stand apart in the source and are kept apart here. Numbered stars: 1 amine (or outer) side, 2 acyl side, 3 side chain; on linkers, the order of the positions; unused ones are H or OH. Bridge positions count the residues as written; N and C are the ends. Square brackets hold non-standard residues; d marks the D form. Peptide text beside a SMILES is read from it. * marks the point of attachment. Bip(4'-COOH) = N[C@@H](Cc1ccc(-c2ccc(C(=O)O)cc2)cc1)C(=O)O; Phe(3-CH2NH2) = O=C([C@H](Cc1cccc(CN[*:3])c1)N[*:1])[*:2]; Phe(3-CF3) = N[C@@H](Cc1cccc(C(F)(F)F)c1)C(=O)O; Ala(morpholin-4-yl) = N[C@@H](CN1CCOCC1)C(=O)O; Phe(4-COOH) = N[C@@H](Cc1ccc(C(=O)O)cc1)C(=O)O; Bip = N[C@@H](Cc1ccc(-c2ccccc2)cc1)C(=O)O; Phe(3-Me) = Cc1cccc(C[C@H](N)C(=O)O)c1; hPhe = N[C@@H](CCc1ccccc1)C(=O)O; Cha = N[C@@H](CC1CCCCC1)C(=O)O; Carboxymethyl = O=C(O)C*; NMeA = CN[C@@H](C)C(=O)O; Nle = CCCC[C@H](N)C(=O)O; Orn = NCCC[C@H](N)C(=O)O; Dab = NCC[C@H](N)C(=O)O
Molecular target: T1, Alexa fluor-647 labeled human PD-L1-Ig binding to Jurkat cell line over-expressing human PD-1 (Homo sapiens, UniProt Q15116)
T1 construct: expressed in transfected cells; host or cells: Jurkat
Assay: Jurkat-PD-1 Cell Binding High-Content Screening Assay (CBA): Method 3 (Alexa fluor-647 labeled PD-L1-Ig)
Conditions: Jurkat-PD-1 cells, Alexa fluor-647 labeled PD-L1-Ig 177 nM
Method in brief: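 Jurkat cells over-expressing human PD-1 in RPMI/10% FCS were preincubated 2 h at 37 °C with compound, then exposed 1 h to Alexa fluor-647 labeled human PD-L1-Ig (177 nM final). Cells fixed in 4% paraformaldehyde with Hoechst 33342 and binding quantified by high-content imaging.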

T1 sequence (Q15116 25-288): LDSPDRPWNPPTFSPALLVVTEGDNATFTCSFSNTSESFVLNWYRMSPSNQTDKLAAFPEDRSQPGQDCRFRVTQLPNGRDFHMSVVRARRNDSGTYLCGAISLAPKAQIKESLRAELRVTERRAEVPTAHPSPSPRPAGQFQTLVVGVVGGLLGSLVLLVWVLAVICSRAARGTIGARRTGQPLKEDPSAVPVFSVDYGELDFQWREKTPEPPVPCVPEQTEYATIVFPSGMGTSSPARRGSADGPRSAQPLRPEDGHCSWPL

| Structure (SMILES) | IC50 (head μM, read-out: CBA Method 3 μM) [µM] | IC50 (nM, read-out: CBA Method 3) [µM] |
| --- | --- | --- |
| Cc1cccc(C[C@@H]2NC(=O)[C@H](CC(=O)O)NC(=O)[C@H](Cc3ccc(OCC(=O)O)cc3)NC(=O)[C@H](CC3CCCCC3)NC(=O)CSC[C@@H](C(=O)N[C@@H](CCN)C(N)=O)NC(=O)[C@H](CCCN)NC(=O)[C@H](C(C)C)NC(=O)[C@H](Cc3cccc(CN)c3)NC(=O)[C@H](CCN)NC(=O)[C@@H](CC(C)C)NC(=O)[C@H](C)N(C)C(=O)[C@H](CCC(N)=O)NC(=O)[C@H](Cc3ccc(-c4ccccc4)cc3)NC(=O)[C@H](Cc3ccc(C(=O)O)cc3)NC2=O)c1 [Example 5188] ({CH2CO}-[Cha]Y(Carboxymethyl)D[Phe(3-Me)][Phe(4-COOH)][Bip]Q[NMeA][dL][Dab][Phe(3-CH2NH2)]V[Orn]C[Dab]-NH2; thioether N-14) | 0.05 |  |
| CC(C)C[C@H]1NC(=O)[C@H](C)N(C)C(=O)[C@H](CCC(N)=O)NC(=O)[C@H](Cc2ccc(-c3ccccc3)cc2)NC(=O)[C@H](CCc2ccccc2)NC(=O)[C@H](Cc2cccc(C(F)(F)F)c2)NC(=O)[C@H](CC(=O)O)NC(=O)[C@H](Cc2ccc(O)cc2)NC(=O)[C@H](CN2CCOCC2)NC(=O)CSC[C@@H](C(=O)N[C@@H](CCN)C(N)=O)NC(=O)[C@H](CCC(N)=O)NC(=O)[C@H](C(C)C)NC(=O)[C@H](CC2CCCCC2)NC(=O)[C@H](CCN)NC1=O [Example 5240] ({CH2CO}-[Ala(morpholin-4-yl)]YD[Phe(3-CF3)][hPhe][Bip]Q[NMeA][dL][Dab][Cha]VQC[Dab]-NH2; thioether N-14) |  | 0.0044 |
| CC(C)C[C@@H]1NC(=O)[C@H](Cc2c[nH]c3ccccc23)NC(=O)[C@H](CC(=O)O)NC(=O)[C@H](Cc2ccc(-c3ccc(C(=O)O)cc3)cc2)NC(=O)[C@H](CN2CCOCC2)NC(=O)CSC[C@@H](C(=O)N[C@@H](CCN)C(N)=O)NC(=O)[C@H](CCC(=O)O)NC(=O)[C@H](C(C)C)NC(=O)[C@H](CC(C)C)NC(=O)[C@H](CC(N)=O)NC(=O)[C@@H](CC(C)C)NC(=O)[C@H](C)N(C)C(=O)[C@H](C(C)C)NC(=O)[C@H](Cc2ccc(-c3ccccc3)cc2)NC1=O [Example 5124] ({CH2CO}-[Ala(morpholin-4-yl)][Bip(4'-COOH)]DWL[Bip]V[NMeA][dL]NLVEC[Dab]-NH2; thioether N-14) |  | 0.0026 |
| CCCC[C@@H]1NC(=O)CSC[C@@H](C(=O)N[C@@H](CCN)C(N)=O)NC(=O)[C@H](CCCN)NC(=O)[C@H](C(C)C)NC(=O)[C@H](CC2CCCCC2)NC(=O)[C@H](CCN)NC(=O)[C@@H](CC(C)C)NC(=O)[C@H](C)N(C)C(=O)[C@H](CCC(N)=O)NC(=O)[C@H](Cc2ccc(-c3ccccc3)cc2)NC(=O)[C@H](Cc2ccc(-c3ccc(C(=O)O)cc3)cc2)NC(=O)[C@H](Cc2cccc(C(F)(F)F)c2)NC(=O)[C@H](CC(=O)O)NC(=O)[C@H](Cc2ccc(C(=O)O)cc2)NC1=O [Example 5166] ({CH2CO}-[Nle][Phe(4-COOH)]D[Phe(3-CF3)][Bip(4'-COOH)][Bip]Q[NMeA][dL][Dab][Cha]V[Orn]C[Dab]-NH2; thioether N-14) |  | 0.001 |
| CC(C)C[C@H]1NC(=O)[C@H](C)N(C)C(=O)[C@H](CCC(N)=O)NC(=O)[C@H](Cc2ccc(-c3ccccc3)cc2)NC(=O)[C@H](CCc2ccccc2)NC(=O)[C@H](Cc2cccc(C(F)(F)F)c2)NC(=O)[C@H](CC(=O)O)NC(=O)[C@H](Cc2ccc(O)cc2)NC(=O)[C@H](CC2CCCCC2)NC(=O)CSC[C@@H](C(=O)N[C@@H](CCN)C(N)=O)NC(=O)[C@H](CCC(N)=O)NC(=O)[C@H](C(C)C)NC(=O)[C@H](CC2CCCCC2)NC(=O)[C@H](CCN)NC1=O [Example 5241] ({CH2CO}-[Cha]YD[Phe(3-CF3)][hPhe][Bip]Q[NMeA][dL][Dab][Cha]VQC[Dab]-NH2; thioether N-14) |  | 0.0004 |

Source: US20240409585A1, “MACROCYCLIC IMMUNOMODULATORS” (priority 2021, published 2024)
